Assay results as given in US12478090B2, “Aerosolizable formulation” (NICOVENTURES TRADING LIMITED, priority 2018, dated 2025).
Entries after “also recorded” stand apart in the source; their conditions may differ.

Assays:
[1] = compared to base cyclodextrins such as β-cyclodextrin; cited from earlier work
[2] = Diffusion-Ordered NMR Spectroscopy (DOSY): diffusion coefficient and residence time within cyclodextrin; type: physicochemical; conditions: for residency time within 2-hydroxy-propyl-β-cyclodextrin: inferred from DOSY NMR diffusion, Formulations 1 and 2 and spiked ratios 1:4:1 / 1:4:1:1
Description: The interaction between cyclodextrin and menthol and cyclodextrin and nicotine (unprotonated and monoprotonated) was assessed using NMR spectroscopy. The study was conducted on formulations containing
Formulation 1-90.0% (w/w) water, 0.9% (w/w) 1-menthol, 9% (w/w) 2-hydroxy-propyl-β-cyclodextrin, and 0.1% (w/w) nicotine.
Formulation 2-89.9% (w/w) water, 0.9% (w/w) 1-menthol, 9% (w/w) 2-hydroxy-propyl-β-cyclodextrin, 0.1% (w/w) nicotine and 0.1% (w/w) citric acid.
During the NMR studies the assessment of the diffusion coefficient and subsequent residence times of monoprotonated nicotine, unprotonated nicotine, menthol within 2-hydroxy-propyl-β-cyclodextrin. The diffusion coefficient and subsequent residence times were studied as they are understood to provide a qualitative assessment of the degree of interaction of the compound with the complexing agent with each of the components studied. It is understood that encapsulation is not a static state but a dynamic one in which materials are encapsulated (e.g. complexed or bound to an encapsulating agent) for a period of time before release after which they may be subsequently encapsulated. Therefore, decreased residence time indicates decreased interaction with the complexing agent.
Diffusion-Ordered NMR Spectroscopy (DOSY) experiments were selected as suitable for assessment of diffusion times of nicotine and menthol solutions of individual constituents, in the formulation describe above and formulations with spike components to vary the ratios of constituents (nicotine: 2-hydroxy-propyl-β-cyclodextrin:menthol=1:4:1 and nicotine: 2-hydroxy-propyl-β-cyclodextrin:menthol:citric acid=1:4:1:1 molar ratios).

[3] = nicotinium citrate gel added in place of nicotine; no heating or filtration steps

2-hydroxy-propyl-β-cyclodextrin
solubility in water [1]: increased solubility in water

CC1CCC(C(C)C)C(O)C1 (stereo not drawn) [menthol]
residency time within 2-hydroxy-propyl-β-cyclodextrin [2]: higher than that of nicotine in both its monoprotonated and unprotonated form; also recorded: mono-protonated nicotine<unprotonated nicotine<menthol

CN1CCC[C@H]1c1cccnc1 [monoprotonated nicotine]
diffusion coefficient ([2]; DOSY NMR, aqueous formulation with menthol and 2-hydroxy-propyl-β-cyclodextrin, with vs without citric acid): faster diffusion coefficient compared to the nicotine without citric acid
residency time within 2-hydroxy-propyl-β-cyclodextrin ([2]; listed as mono-protonated nicotine): mono-protonated nicotine<unprotonated nicotine<menthol

CN1CCCC1c1cccnc1.O=C(O)CC(O)(CC(=O)O)C(=O)O [nicotinium citrate]
visual precipitate in formulation [3]: lack of any visual precipitate

CN1CCC[C@H]1c1cccnc1 [unprotonated nicotine]
residency time within 2-hydroxy-propyl-β-cyclodextrin [2]: higher residence within 2-hydroxy-propyl-β-cyclodextrin than mono-protonated nicotine; also recorded: mono-protonated nicotine<unprotonated nicotine<menthol
